US20040097594A1 (priority 1998, published 2004)

Tests used:
HIV-1 protease = HIV-1 protease (Human immunodeficiency virus type 1 group M subtype B, UniProt P04585); experiment: biochemical; details: HIV-1 protease; upper line of each compound's entry; read-out: Ki (enzyme)
HIV-1 (strain IIIB) = experiment: microbe, parasite or virus in culture; assay type: cell-based; details: Human immunodeficiency virus 1, 120 h; MT4 cells infected with HIV-1 strain IIIB, 5 days; lower line of each compound's entry; read-out: IC50 (MT-4 cells)

## O=C(N[C@@H](Cc1ccccc1)[C@H](O)CN(OC1CCCCC1)S(=O)(=O)c1cccc(O)c1)O[C@H]1CO[C@H]2OCC[C@H]21 [Example 159, (3R,3aS,6aR)hexahydrofuro[2,3-b]furan-3-yl(1S,2R)-1-benzyl-3-{(cyclohexyloxy)[(3-hydroxyphenyl)sulfonyl]amino}-2-hydroxypropylcarbamate]
HIV-1 protease
  Ki: < 1 nM
HIV-1 (strain IIIB)
  IC50: ≤ 100 nM

## O=C(N[C@@H](Cc1ccccc1)[C@H](O)CN(OC1CCCCC1)S(=O)(=O)c1ccc(O)cc1)O[C@H]1CO[C@H]2OCC[C@H]21 [Example 160, (3R,3aS,6aR)hexahydrofuro[2,3-b]furan-3-yl(1S,2R)-1-benzyl-3-{(cyclohexyloxy)[(4-hydroxyphenyl)sulfonyl]amino}-2-hydroxypropylcarbamate]
HIV-1 protease
  Ki: < 1 nM
HIV-1 (strain IIIB)
  IC50: ≤ 100 nM

## CCC(CC)ON(C[C@@H](O)[C@H](Cc1ccccc1)NC(=O)OC(C)(C)C)S(=O)(=O)c1ccc(OC)cc1 [Example 161, tert-butyl(1S,2R)-1-benzyl-3-{(1-ethylpropoxy)[(4-methoxyphenyl)sulfonyl]amino}-2-hydroxypropylcarbamate]
HIV-1 protease
  Ki: 1 to 10 nM
HIV-1 (strain IIIB)
  IC50: > 1000 nM

## CCC(CC)ON(C[C@@H](O)[C@H](Cc1ccccc1)NC(=O)O[C@H]1CO[C@H]2OCC[C@H]21)S(=O)(=O)c1ccc2c(c1)OCO2 [Example 162, (3R,3aS,6aR)hexahydrofuro[2,3-b]furan-3-yl(1S,2R)-3-[(1,3-benzodioxol-5-ylsulfonyl)(1-ethylpropoxy)amino]-1-benzyl-2-hydroxypropylcarbamate]
HIV-1 protease
  Ki: < 1 nM
HIV-1 (strain IIIB)
  IC50: ≤ 100 nM

## CCC(CC)ON(C[C@@H](O)[C@H](Cc1ccccc1)NC(=O)O[C@H]1CO[C@H]2OCC[C@H]21)S(=O)(=O)c1ccc(N)cc1 [Example 163, (3R,3aS,6aR)hexahydrofuro[2,3-b]furan-3-yl(1S,2R)-3-[[(4-aminophenyl)sulfonyl](1-ethylpropoxy)amino]-1-benzyl-2-hydroxypropylcarbamate]
HIV-1 protease
  Ki: < 1 nM
HIV-1 (strain IIIB)
  IC50: ≤ 100 nM

## CCC(CC)ON(C[C@@H](O)[C@H](Cc1ccccc1)NC(=O)O[C@H]1CO[C@H]2OCC[C@H]21)S(=O)(=O)c1cccc(N)c1 [Example 164, (3R,3aS,6aR)hexahydrofuro[2,3-b]furan-3-yl(1S,2R)-3-[[(3-aminophenyl)sulfonyl](1-ethylpropoxy)amino]-1-benzyl-2-hydroxypropylcarbamate]
HIV-1 protease
  Ki: < 1 nM
HIV-1 (strain IIIB)
  IC50: ≤ 100 nM

## CCC(CC)ON(C[C@@H](O)[C@H](Cc1ccccc1)NC(=O)O[C@H]1CO[C@H]2OCC[C@H]21)S(=O)(=O)c1ccc(O)cc1 [Example 166, (3R,3aS,6aR)hexahydrofuro[2,3-b]furan-3-yl(1S,2R)-1-benzyl-3-{(1-ethylpropoxy)[(4-hydroxyphenyl)sulfonyl]amino}-2-hydroxypropylcarbamate]
HIV-1 protease
  Ki: < 1 nM
HIV-1 (strain IIIB)
  IC50: ≤ 100 nM

## CNC(=O)CNC(=O)NCCNc1cccc(S(=O)(=O)N(CC(O)C(Cc2ccccc2)NC(=O)OC2COC3OCCC23)OC2CCCC2)c1 [Example 167, (3R,3aS,6aR)hexahydrofuro[2,3-b]furan-3-yl N-[(1S,2R)-1-benzyl-3-((cyclopentyloxy)[3-([(2-[methylamino]-2-oxoethylamino)carbonylamino]ethylamino)phenyl]sulfonylamino)-2-hydroxypropyl]carbamate and (3S,3aR,6aS)hexahydrofuro[2,3-b]furan-3-yl N-[(1S,2R)-1-benzyl-3-((cyclopentyloxy)[3-([2-[methylamino)-2-oxoethylamino)carbonylamino]ethylamino)phenyl]sulfonylamino)-2-hydroxypropyl]carbamate]
HIV-1 protease
  Ki: < 1 nM
HIV-1 (strain IIIB)
  IC50: 100 to 500 nM

## Nc1ccc(S(=O)(=O)N(CC(O)C(Cc2ccccc2)NC(=O)OC2COC3OCCC23)OC2CCCC2)cc1 [Example 171, (3R,3aS,6aR)hexahydrofuro[2,3-b]furan-3-yl N-(1S,2R)-3-[[(4-aminophenyl)sulfonyl](cyclopentyloxy)amino]-1-benzyl-2-hydroxypropyl carbamate]
HIV-1 protease
  Ki: < 1 nM
HIV-1 (strain IIIB)
  IC50: ≤ 100 nM

## NC(=O)c1cccc(S(=O)(=O)N(C[C@@H](O)[C@H](Cc2ccccc2)NC(=O)O[C@H]2CO[C@H]3OCC[C@H]32)OC2CCCC2)c1 [Example 173, (3R,3aS,6aR)hexahydrofuro[2,3-b]furan-3-yl N-(1S,2R)-3[[(3-carbamoylphenyl)sulfonyl](cyclopentyloxy)amino]-1-benzyl-2-hydroxypropyl carbamate]
HIV-1 protease
  Ki: < 1 nM
HIV-1 (strain IIIB)
  IC50: ≤ 100 nM
